Test results taken from paper PMC12860872, “Preclinical evaluation of DOTAGA.Glu.(FAPI)2 and DO3A.Glu.(FAPI)2 as theranostics with human dosimetry extrapolation to lutetium-177 and terbium-161 analogs” (European Journal of Nuclear Medicine and Molecular Imaging, 2025).
Values joined by “and” are separate entries in the source; they are usually repeats but may differ in a detail not shown here. Equal entries are not always repeated.

Test: Extrapolated human dosimetry (OLINDA/EXM, ICRP-89 phantoms)
Parameters: TIAC average pancreas: unit not given beside the values; TIAC average stomach / TIAC average Small Intestine / TIAC average Left Column / TIAC average Rectum / TIAC average adrenal / TIAC average bone / TIAC average Red marrow / TIAC average salivary glands / TIAC average ROB / TIAC average Total Frac IA / TIAC average heart content / TIAC average heart wall / TIAC average liver / TIAC average spleen / TIAC average lung / TIAC average kidney: unit not given here
Method: To address inter-animal variability, the TIACs for each source organ were calculated from both the mean nTACs and the nTACs obtainend from fitting the mean ± 1 standard deviation (SD) of the normalized time-activity data, providing upper and lower bounds.
The mice-to-human TIAC extrapolation accounted for species-specific differences in relative source organ masses, m(organ), as compared to the total body weight (WB), for the mice (m) and human (h) models respectively.
(§1) The human organ masses, m(organ)h, were obtained from ICRP-89 adult male and female reference phantoms, while the murine organ masses, m(organ)m, were derived from the standard MOBY mouse model. The extrapolated human TIACs, TIACh were entered in the OLINDA/EXM software to compute the absorbed doses to target organs and the effective dose for adult male, female, and gender-averaged human models. […]
The TIACs, for [177Lu]Lu-DOTAGA.Glu.(FAPI)2 and [177Lu]Lu-DO3A.Glu.(FAPI)2, were determined by time integration of the nTACs. To account for the inter-animal variability, the TIACs for each source organ were calculated using both the mean nTACs and the nTACs obtainend from fitting the mean ±1 standard deviation (SD) of the normalized time-activity data. This approach provided the upper and the lower bounds for the estimated TIACs.
The mice-to-human TIAC extrapolation was obtained considering the different (species-specific) relative source organ masses, m(organ), as compared to the total body weight (WB), for the mice (m) and human (h) models respectively.
as §1, with “the” for “ICRP-89”, “models phantoms defined in ICRP-89,” for “phantoms,”, “TIACs values, TIACh, for each source organ” for “TIACs, TIACh”, “input into the kinetic module of” for “entered in”, “software (version 2.1, HERMES Medical Solutions AB, Stockholm, Sweden)” for “software”

[1] = ICRP 89 Adult Female, extrapolated
[2] = ICRP 89 Adult Male, extrapolated
[3] = human extrapolation, male-female range

Compound: N#C[C@@H]1CC(F)(F)CN1C(=O)CNC(=O)c1ccnc2ccc(OCCCCNC(=O)CC[C@H](NC(=O)CN3CCN(CC(=O)[O-])CCN(CC(=O)[O-])CCN(CC(=O)[O-])CC3)C(=O)NCCCCOc3ccc4nccc(C(=O)NCC(=O)N5CC(F)(F)C[C@H]5C#N)c4c3)cc12.[177Lu+3] [[^177Lu]Lu-DO3A.Glu.(FAPI)2]
- Absorbed dose (AD average) Adrenals [1]: 9.96E-03 mGy/Mbq
- Absorbed dose (AD average) Brain [1]: 2.63E-02 mGy/Mbq
- Absorbed dose (AD average) Breasts [1]: 2.57E-02 mGy/Mbq
- Absorbed dose (AD average) Esophagus [1]: 2.66E-02 mGy/Mbq
- Absorbed dose (AD average) Eyes [1]: 2.63E-02 mGy/Mbq
- Absorbed dose (AD average) Gallbladder Wall [1]: 2.80E-02 mGy/Mbq
- Absorbed dose (AD average) Heart Wall [1]: 2.49E-02 mGy/Mbq
- Absorbed dose (AD average) Kidneys [1]: 2.54E-02 ± 0.001 mGy/Mbq and 2.54E-02 mGy/Mbq
- Absorbed dose (AD average) Left colon [1]: 6.93E-02 mGy/Mbq
- Absorbed dose (AD average) Liver [1]: 7.30E-02 ± 0.003 mGy/Mbq and 7.30E-02 mGy/Mbq
- Absorbed dose (AD average) Lungs [1]: 4.16E-02 ± 0.01 mGy/Mbq and 4.16E-02 mGy/Mbq
- Absorbed dose (AD average) Osteogenic Cells [1]: 6.24E-02 ± 0.002 mGy/Mbq and 6.24E-02 mGy/Mbq
- Absorbed dose (AD average) Ovaries [1]: 2.76E-02 mGy/Mbq
- Absorbed dose (AD average) Pancreas [1]: 2.62E-02 ± 0.001 mGy/Mbq and 2.62E-02 mGy/Mbq
- Absorbed dose (AD average) Rectum [1]: 7.09E-02 mGy/Mbq
- Absorbed dose (AD average) Red Marrow [1]: 3.06E-02 ± 0.001 mGy/Mbq and 3.06E-02 mGy/Mbq
- Absorbed dose (AD average) Right colon [1]: 4.88E-02 mGy/Mbq
- Absorbed dose (AD average) Salivary Glands [1]: 8.81E-02 ± 0.01 mGy/Mbq and 8.81E-02 mGy/Mbq
- Absorbed dose (AD average) Small Intestine [1]: 4.29E-02 ± 0.003 mGy/Mbq and 4.29E-02 mGy/Mbq
- Absorbed dose (AD average) Spleen [1]: 6.42E-02 ± 0.003 mGy/Mbq and 6.42E-02 mGy/Mbq
- Absorbed dose (AD average) Stomach Wall [1]: 3.65E-02 mGy/Mbq
- Absorbed dose (AD average) Thymus [1]: 2.70E-02 mGy/Mbq
- Absorbed dose (AD average) Thyroid [1]: 2.64E-02 mGy/Mbq
- Absorbed dose (AD average) Total Body [1]: 3.44E-02 ± 0.002 mGy/Mbq and 3.44E-02 mGy/Mbq
- Absorbed dose (AD average) Urinary Bladder Wall [1]: 2.73E-02 mGy/Mbq
- Absorbed dose (AD average) Uterus [1]: 2.76E-02 mGy/Mbq
- Effective dose (average) [1]: 3.49E-02
- Absorbed dose (AD average) Adrenals [2]: 7.77E-03 mGy/Mbq
- Absorbed dose (AD average) Brain [2]: 2.00E-02 mGy/Mbq
- Absorbed dose (AD average) Esophagus [2]: 2.06E-02 mGy/Mbq
- Absorbed dose (AD average) Eyes [2]: 2.00E-02 mGy/Mbq
- Absorbed dose (AD average) Gallbladder Wall [2]: 2.20E-02 mGy/Mbq
- Absorbed dose (AD average) Heart Wall [2]: 2.04E-02 mGy/Mbq
- Absorbed dose (AD average) Kidneys [2]: 2.09E-02 ± 0.001 mGy/Mbq and 2.09E-02 mGy/Mbq
- Absorbed dose (AD average) Left colon [2]: 5.77E-02 mGy/Mbq
- Absorbed dose (AD average) Liver [2]: 6.00E-02 ± 0.002 mGy/Mbq and 6.00E-02 mGy/Mbq
- Absorbed dose (AD average) Lungs [2]: 3.40E-02 ± 0.01 mGy/Mbq and 3.40E-02 mGy/Mbq
- Absorbed dose (AD average) Osteogenic Cells [2]: 6.64E-02 ± 0.002 mGy/Mbq and 6.64E-02 mGy/Mbq
- Absorbed dose (AD average) Pancreas [2]: 2.12E-02 ± 0.001 mGy/Mbq and 2.12E-02 mGy/Mbq
- Absorbed dose (AD average) Prostate [2]: 2.07E-02 mGy/Mbq
- Absorbed dose (AD average) Rectum [2]: 5.76E-02 mGy/Mbq
- Absorbed dose (AD average) Red Marrow [2]: 2.43E-02 ± 0.001 mGy/Mbq and 2.43E-02 mGy/Mbq
- Absorbed dose (AD average) Right colon [2]: 3.94E-02 mGy/Mbq
- Absorbed dose (AD average) Salivary Glands [2]: 7.27E-02 ± 0.01 mGy/Mbq and 7.27E-02 mGy/Mbq
- Absorbed dose (AD average) Small Intestine [2]: 3.27E-02 ± 0.002 mGy/Mbq and 3.27E-02 mGy/Mbq
- Absorbed dose (AD average) Spleen [2]: 5.27E-02 ± 0.002 mGy/Mbq and 5.27E-02 mGy/Mbq
- Absorbed dose (AD average) Stomach Wall [2]: 2.83E-02 mGy/Mbq
- Absorbed dose (AD average) Testes [2]: 2.00E-02 mGy/Mbq
- Absorbed dose (AD average) Thymus [2]: 2.03E-02 mGy/Mbq
- Absorbed dose (AD average) Thyroid [2]: 2.04E-02 mGy/Mbq
- Absorbed dose (AD average) Total Body [2]: 2.71E-02 ± 0.001 mGy/Mbq and 2.71E-02 mGy/Mbq
- Absorbed dose (AD average) Urinary Bladder Wall [2]: 2.07E-02 mGy/Mbq
- Effective dose (average) (ICRP 89 Adult Male, extrapolated, in mSv/MBq (unit assumed)): 2.56E-02
- absorbed dose kidneys [3]: 0.02–0.03 Gy/GBq
- absorbed dose liver [3]: 0.06–0.07 Gy/GBq
- absorbed dose salivary glands [3]: 0.07–0.09 Gy/GBq
- total body and effective doses [3]: 0.027–0.034 Gy/GBq
- TIAC average Left Column (human female, extrapolated): 0.0781
- TIAC average ROB (human female, extrapolated): 16.8035
- TIAC average Rectum (human female, extrapolated): 0.0808
- TIAC average Red marrow (human female, extrapolated): 0.2208
- TIAC average Small Intestine (human female, extrapolated): 0.1025
- TIAC average Total Frac IA (human female, extrapolated): 21.2881
- TIAC average adrenal (human female, extrapolated): 0.0008
- TIAC average bone (human female, extrapolated): 2.8185
- TIAC average heart content (human female, extrapolated): 0.0908
- TIAC average heart wall (human female, extrapolated): 0.0329
- TIAC average kidney (human female, extrapolated): 0.0717
- TIAC average liver (human female, extrapolated): 1.1228
- TIAC average lung (human female, extrapolated): 0.4313
- TIAC average pancreas (human female, extrapolated): 0.0313
- TIAC average salivary glands (human female, extrapolated): 0.0707
- TIAC average spleen (human female, extrapolated): 0.0929
- TIAC average stomach (human female, extrapolated): 0.0501
- TIAC average Left Column (human male, extrapolated): 0.0642
- TIAC average ROB (human male, extrapolated): 15.5056
- TIAC average Rectum (human male, extrapolated): 0.0642
- TIAC average Red marrow (human male, extrapolated): 0.2359
- TIAC average Small Intestine (human male, extrapolated): 0.0958
- TIAC average Total Frac IA (human male, extrapolated): 21.2881
- TIAC average adrenal (human male, extrapolated): 0.0007
- TIAC average bone (human male, extrapolated): 3.1852
- TIAC average heart content (human male, extrapolated): 0.1028
- TIAC average heart wall (human male, extrapolated): 0.0357
- TIAC average kidney (human male, extrapolated): 0.0664
- TIAC average liver (human male, extrapolated): 1.1865
- TIAC average lung (human male, extrapolated): 0.4477
- TIAC average pancreas (human male, extrapolated): 0.0300
- TIAC average salivary glands (human male, extrapolated): 0.0706
- TIAC average spleen (human male, extrapolated): 0.0881
- TIAC average stomach (human male, extrapolated): 0.0446
